Data from US9150530B2, “Esters of 4, 9-dihydroxy-naphtho [2, 3-b] furans for disease therapies” (Zhoushan Haizhongzhou Xinsheng Pharmaceuticals Co., Ltd., priority 2011, dated 2015).

Experiments:
[1] = Human plasma incubation, HPLC analysis of degradation products; format: in vitro ADME; conditions: 20 μM in human plasma, 37° C., 2 hours
Method: The compounds of formula I were incubated in human plasma at 37° C. for 2 hours, and then the mixtures were treated with acetonitrile to remove protein and the resulting supernatants were analyzed by HPLC (FIG. 2). […] Without wishing to be bound by a particular theory, it is believed that, although not detected due to instability in a protein-free environment, the direct hydrolysis product of a compound of formula I, 4,9-dihydroxy-naphtho[2,3-b]furan, and its partially oxidized product semihydroquinone (shown in scheme 6) co-exist in vivo and play important biological roles.
HPLC column: Waters Sunfire C18, 250×4.60 mm 5 micron; Mobile phase: buffer A, 90% 5 mM potassium phosphate buffer, pH 6.8, 10% acetonitrile; buffer B, 15% 5 mM potassium phosphate buffer, pH 6.8, 85% acetonitrile; Detector: Waters 2998 Photodiode Array Detector.
Gradient B: 0-3 min, 50% buffer B, 3-5 min, 50%-100% buffer B, 5-18 min, 100% buffer B, 18-22 min, 100%-50% buffer B, 22-25 min, […]; flow rate, 1 ml/min. Analysis of the 4,9-dihydroxy-naphtho[2,3-b]furan compounds (FIG. 1)
10 mM of a compound of formula I or its analog in DMSO (however, compound VI was in DMF) was diluted with human plasma to 20 μM, and the resulting mixtures were incubated at 37° C. for 2 hours. To plasma sample, 9 times volume of acetonitrile was added. The resulting mixtures were vortexed and incubated in dry ice for 30 minutes or in −20° C. freezer for 3 hours, then centrifuged, and supernatant was used for HPLC analysis using gradient B.

[2] = system: MES-SA; test: Cell viability determination (MTT), MES-SA; format: cell-based; conditions: Homo sapiens, leiomyosarcoma, 48 hour incubation, read-out: Drug concentrations for 50% cell viability (IC50)
Excerpt: (§1) Cell Culture: A549, DLD1, SW480, LOVO, HT-29, Hela, U-20S, MES-SA, SK-MEL-28, Panc-1, DU-145, CNE, U251, Eca-109, MGC80-3, QGY-7701, BEL-7404, PLC/PRF/5, Huh-7, and SGC-7901 cells were maintained in Dulbecco's Modified Eagle Medium (DMEM) (imported from Invitrogen, Carlsbad, Calif., USA) supplemented with 10% fetal bovine serum (FBS) (Si Ji Qing, Hangzhou, China) and 1% penicillin/streptomycin/amphotericin B (imported from Invitrogen, Carlsbad, Calif., USA).
(§2) Cell Viability Determination: Popular MTT method (Archives of Biochemistry and Biophysics, 1993, 303: 474-482) was used to screen the in vitro effects of the invented drugs. Briefly, 5000 to 10000 cells were inoculated per well in a 96-well plate. After overnight incubation, drug was added to the wells at final concentration of 10 μM, […], 2.5 μM, 1.25 μM, or 1 μM, 0.75 μM, 0.5 μM and 0.25 μM in complete culture medium. Each dose level covered 4 equivalent wells. After 48 hour incubation, one tenth volume of 5 mg/mL MTT (thiazolyl blue tetrazolium bromide, Sigma-Aldrich) stock solution was added, and incubation was continued for 2 hours. Then medium was removed and 100 μL of isopropanol solution comprising 86% isopropanol, 4% aqueous 1 N HCl and 10% aqueous SDS solution (10% in concentration) was added. The absorbance of each well at 570 nm wavelength was measured by a micro-plate reader after gentle shaking for 20 minutes. Drug concentrations of 50% cell viability (IC50) were calculated by LOGIT method.

[3] = system: LOVO; test: Cell viability determination (MTT), LOVO; format: cell-based; conditions: Homo sapiens, colorectal cancer, 48 hour incubation, read-out: Drug concentrations for 50% cell viability (IC50)
Excerpt: as §1, §2

[4] = system: Eca-109; test: Cell viability determination (MTT), Eca-109; format: cell-based; conditions: Homo sapiens, Eca-109, esophageal cancer, 48 hour incubation, read-out: Drug concentrations for 50% cell viability (IC50)
Excerpt: as §1, §2

[5] = system: Panc-1; test: Cell viability determination (MTT), Panc-1; format: cell-based; conditions: Homo sapiens, Panc-1, pancreatic cancer, 48 hour incubation, read-out: Drug concentrations for 50% cell viability (IC50)
Excerpt: as §1, §2

[6] = system: CNE; test: Cell viability determination (MTT), CNE; format: cell-based; conditions: Homo sapiens, nasopharyngeal cancer, 48 hour incubation, read-out: Drug concentrations for 50% cell viability (IC50)
Excerpt: as §1, §2

[7] = system: U-20S; test: Cell viability determination (MTT), U-20S; format: cell-based; conditions: osteosarcoma, 48 hour incubation, read-out: Drug concentrations for 50% cell viability (IC50)
Excerpt: as §1, §2

[8] = system: Panc-1; test: Effect of NQ01 inhibitor (dicumarol) on biological activity, MTT, Panc-1; format: cell-based; conditions: Panc-1 (no significant NQ01 enzymatic activity); dicumarol 40 μM; 48 hr
Method: as §2
(§3) Effect of NQ01 Inhibitor (Dicumarol) on the Biological Activities of 2-acetyl-4,9-diacetoxy-naphtho[2,3-b]furan and Compound XIII (Part B and C of FIG. 4):MTT assay was used for this experiment. Same procedure as described in “Cell Viability Determination” section. […] The viability of cells at each well was read out after 48 hr incubation in cell culture incubator.

[9] = system: A549; test: Cell viability determination (MTT), A549; format: cell-based; conditions: Homo sapiens, A549, lung cancer, 48 hour incubation, read-out: Drug concentrations for 50% cell viability (IC50)
Excerpt: as §1, §2

[10] = system: SW480; test: Cell viability determination (MTT), SW480; format: cell-based; conditions: Homo sapiens, SW480, colorectal cancer, 48 hour incubation, read-out: Drug concentrations for 50% cell viability (IC50)
Excerpt: as §1, §2

[11] = system: SK-MEL-28; test: Cell viability determination (MTT), SK-MEL-28; format: cell-based; conditions: Homo sapiens, SK-MEL-28, malignant melanoma, 48 hour incubation, read-out: Drug concentrations for 50% cell viability (IC50)
Excerpt: as §1, §2

[12] = system: DLD1; test: Cell viability determination (MTT), DLD1; format: cell-based; conditions: Homo sapiens, DLD-1, DLD1, colorectal cancer, 48 hour incubation, read-out: Drug concentrations for 50% cell viability (IC50)
Excerpt: as §1, §2

[13] = system: U251; test: Cell viability determination (MTT), U251; format: cell-based; conditions: Homo sapiens, U-251, U251, glioma, 48 hour incubation, read-out: Drug concentrations for 50% cell viability (IC50)
Excerpt: as §1, §2

[14] = system: DU-145; test: Cell viability determination (MTT), DU-145; format: cell-based; conditions: Homo sapiens, DU-145, prostate cancer, 48 hour incubation, read-out: Drug concentrations for 50% cell viability (IC50)
Excerpt: as §1, §2

[15] = system: DLD1; test: Effect of NQ01 inhibitor (dicumarol) on biological activity, MTT, DLD1; format: cell-based; conditions: DLD1 (significant NQ01 enzymatic activity); dicumarol 40 μM; 48 hr
Method: as §2, §3

[16] = system: Hela; test: Cell viability determination (MTT), Hela; format: cell-based; conditions: Homo sapiens, cervical cancer, 48 hour incubation, read-out: Drug concentrations for 50% cell viability (IC50)
Excerpt: as §1, §2

[17] = system: MGC80-3; test: Cell viability determination (MTT), MGC80-3; format: cell-based; conditions: Homo sapiens, MGC-803, MGC80-3, stomach cancer, 48 hour incubation, read-out: Drug concentrations for 50% cell viability (IC50)
Excerpt: as §1, §2

[18] = Metabolism in biological fluid (human whole blood, cancer cell lysate, liver microsomes, mouse oral uptake), HPLC; format: in vitro ADME; conditions: liver microsomes or mouse oral uptake system, 20 μM, 37° C.
Method: Second, a major metabolite found after incubation of compound I, III, IV, VI or XIII in biological fluid, such as human whole blood, or cancer cell lysate, or liver microsomes, or mouse oral uptake system, is compound XII (FIG. 3). Similarly, a major metabolite found after incubation of compound V, VII or XIV in biological fluid is 2-(1-hydroxy-n-propyl)-naphtho[2,3-b]furan-4,9-dione (data not shown). Reduction of the position 2 substituent carbonyl group is part of quinone redox reaction as evidenced by the β-lapachone effect on the formation of compound XII in the compound XIII incubation mixture of human whole blood (part D of FIG. 3). The possible reaction mechanism is proposed as shown in scheme 7, in which the two electron reduction could be NQ01 catalyzed reduction or two successive cytochrome b5 reductase or p450 reductase catalyzed reaction. As substrate of these enzymes, β-lapachone could compete for the two electron or single electron reaction and thus reduced formation of the metabolism product.
Crystalline or amorphous solid of compound was mixed with excipient and suspended in 0.5% carboxymethylcellulose (CMC) solution in a mortar. Then the mixture was orally administered into ICR mouse at the predetermined dosage. At the predetermined time point, blood was drawn from the mouse and stored in the vial containing heparin. The blood samples were centrifuged at 6,000 rpm for 10 min, and plasmas were separated. To each plasma sample, 9 times volume of acetonitrile/methyl trifluoromethanesulfonate (1000:1) or acetonitrile/concentrated HCl (1000:1) was added. The resulting mixtures were vortexed and incubated in dry ice for 30 minutes or in −20° C. freezer for 3 hours, then centrifuged, and supernatants were separated for HPLC analysis using gradient B.
The biological systems for in vitro metabolism study include: human whole blood stabilized with sodium citrate; cancer cell lysate (obtained using freeze-thaw method, 10 mg/ml in protein concentration for use); liver microsomes with NADPH generation system (prepared according to the protocol provided by iPhase Pharma, Beijing, China);
10 mM of a compound of formula I or its analog or compound XIII in DMSO (however, compound VI was in DMF) was added into the biological system to a final concentration of 20 μM. The mixtures were incubated at 37° C. for predetermined time. To each sample, then 9 times volume of acetonitrile was added. The resulting mixtures were vortexed and incubated in dry ice for 30 minutes or in −20° C. freezer for 3 hours, then centrifuged, and supernatants were separated for HPLC analysis using gradient B.

[19] = system: QGY-7701; test: Cell viability determination (MTT), QGY-7701; format: cell-based; conditions: QGY7701, QGY-7701, liver cancer, 48 hour incubation, read-out: Drug concentrations for 50% cell viability (IC50)
Excerpt: as §1, §2

Row | SMILES | Degradation / detectable products after incubation in human plasma [1] | IC50 [2] [nM] | IC50 [3] [nM] | IC50 [4] [nM] | IC50 [5] [nM] | IC50 [6] [nM] | IC50 [7] [nM] | Dicumarol effect on anticancer activity [8] | IC50 [9] [nM] | IC50 [10] [nM] | IC50 [11] [nM] | IC50 [12] [nM] | IC50 [13] [nM] | IC50 [14] [nM] | Dicumarol effect on anticancer activity [15] | IC50 [16] [nM] | IC50 [17] [nM] | Major metabolite found after incubation in biological fluid [18] | IC50 [19] [nM]
1 | CC(=O)Oc1c2ccccc2c(OC(C)=O)c2oc(C(C)=O)cc12 [2-acetyl-4,9-bis(acetoxy)-naphtho[2,3-b]furan, reference compound] | the only detectable product was compound XIII | 600 | 1100 | 1400 | 1500 | 1500 | 1000 | dicumarol showed little effect | 1700 | 860 | 300 | 1800 | 1080 | 1000 | dicumarol attenuates anticancer activities | 1200 |  |  | 
2 | CC(=O)c1cc2c(OC(=O)C(C)(C)C)c3ccccc3c(OC(=O)C(C)(C)C)c2o1 [compound II, 2-acetyl-4,9-Bis(pivaloxy)-naphtho[2,3-b]furan] | barely degraded |  | > 4000 | > 4000 | 3000 |  |  |  |  | > 4000 |  | > 4000 |  |  |  |  |  |  | 
3 | CC(=O)c1cc2c(O)c3ccccc3c(OC(=O)CNC(=O)OC(C)(C)C)c2o1 [compound III, 2-acetyl-4-hydroxy-9-[(tert-butoxycarbonyl)amino]acetoxy-naphtho[2,3-b]furan] |  | 470 | 3100 | 2550 | 1770 | 1870 | 2500 to 5000 |  | 1250 to 2500 | 1550 | 890 | 1030 | 2070 | 1250 to 2500 |  | 1250 to 2500 | 1650 | compound XII | 4800
4 | CC(=O)c1cc2c(OC(=O)C(C)C)c3ccccc3c(OC(=O)C(C)C)c2o1 [compound I] | the detectable products were compound XIII and partially degraded products | < 2500 | 2800 | 5500 | < 2500 | 2500 | 5700 |  | < 2500 | < 2500 |  | < 2500 | < 2500 | < 2500 |  | < 2500 | 2500 | compound XII | 2870
5 | CC(=O)c1cc2c(OC(=O)C(Cl)Cl)c3ccccc3c(OC(=O)C(Cl)Cl)c2o1 [compound VI, 2-acetyl-4,9-Bis(dichloroacetoxy)-naphtho[2,3-b]furan] |  | 270 | 1500 | 800 | 1000 | 1100 | 800 |  | 400 | 600 |  | 900 | 700 | 1000 |  | 400 | 600 | compound XII | 
